# Laboratory results as given in the OPERA property sets (Mansouri et al. 2018).
SMILES,melting point,boiling point,further results
Cc1cc(C)c(O)c(C(=O)CC2CC(=O)NC(=O)C2)c1,201 °C,–,–
CCCCCc1ccc(O)cc1,23 °C,250 °C,–
CC[N+](CC)(CC)CCC(O)(c1ccccc1)C1CCCCC1.[I-] (stereo not drawn),182 °C,–,–
BrC=C(Br)Br,–,164 °C,–
OCC1CCC(CO)CC1 (stereo not drawn),51 °C,285 °C,log10 vapour pressure (mmHg): -3.51
C=C(C)C1CC=C(C)CC1 (stereo not drawn),-86.4 °C,176 °C,log10 vapour pressure (mmHg): 0.215; ready biodegradability: readily biodegradable
CCn1cccc1,–,130 °C,–
CC[C@H]1OC(=O)[C@H](C)[C@@H](O[C@H]2C[C@@](C)(OC)[C@@H](O)[C@H](C)O2)[C@H](C)[C@@H](O[C@@H]2O[C@H](C)C[C@H](N(C)C)[C@H]2O)[C@](C)(O)C[C@@H](C)CN(C)[C@H](C)[C@@H](O)[C@]1(C)O,114 °C,–,–
Clc1ccc(-c2c(Cl)cccc2Cl)c(Cl)c1,–,–,log10 Henry constant (atm·m³/mol): -3.85; log10 biotransformation half-life (days) (fish): 2.47
C[Si](C)(C)O[Si](O[Si](C)(C)C)(O[Si](C)(C)C)O[Si](C)(C)C,–,–,log10 vapour pressure (mmHg): -1.17
C1N2CN3CN1CN(C2)C3,–,–,log10 vapour pressure (mmHg): -2.4; ready biodegradability: readily biodegradable
c1ccc2c(c1)CCc1ccccc1N2,106 °C,–,–
C[NH+](C)CCC(c1ccc(Cl)cc1)c1ccccn1.O=C([O-])/C=C\C(=O)O (stereo not drawn),132 °C,–,–
CCCCCCCCCCCCCS,–,291 °C,log10 vapour pressure (mmHg): -3.16
CCCCCCCCCCCl,-31.3 °C,223 °C,log10 vapour pressure (mmHg): -2.01
COc1cc(Cl)ccc1N,52 °C,260 °C,–
CC(C(=O)O)c1ccc(C(=O)c2cccs2)cc1 (stereo not drawn),124 °C,–,–
Nc1ccc(Oc2ccc(N)cc2)cc1,–,350 °C,ready biodegradability: not readily biodegradable
C=CCC1(CC=C)C(=O)NC(=O)NC1=O,172 °C,–,–
COc1ccc(CO)cc1,25 °C,259 °C,–
N[C@@H](CCC(=O)O)C(=O)O,–,–,log10 vapour pressure (mmHg): -7.77; ready biodegradability: readily biodegradable
C=CC(=C)CCC=C(C)C,–,167 °C,log10 vapour pressure (mmHg): 0.304; ready biodegradability: readily biodegradable

SMILES,melting point,boiling point,further results
Nc1ccc(-c2ccc(N)c(N)c2)cc1N,176 °C,–,–
Clc1cc2c(c(Cl)c1Cl)Oc1c(cc(Cl)c(Cl)c1Cl)O2,243 °C,–,log10 Koa: 11; log10 vapour pressure (mmHg): -10.3; log10 BCF (fish): 3.92; log10 biotransformation half-life (days) (fish): 1.3
O=C(CBr)c1ccc(Br)cc1,111 °C,–,–
CCF,-143 °C,-37.6 °C,log10 vapour pressure (mmHg): 3.84
COc1cc(C(=O)O)cc(OC)c1OC,172 °C,–,–
CCc1c(CC)c(CC)c(CC)c(CC)c1CC,129 °C,298 °C,–
COc1ccc(F)cc1,-45 °C,157 °C,–
c1ccc(-c2nc(-c3ccccc3)c(-c3ccccc3)[nH]2)cc1,275 °C,–,–
Cc1cnc2c(C(=O)O)c(Cl)ccc2c1,244 °C,–,–
CC(C)(C)SSC(C)(C)C,-5 °C,–,–
Clc1cccc(-c2ccccc2)c1,16 °C,284 °C,log10 Henry constant (atm·m³/mol): -3.21; log10 Koa: 6.82; log10 vapour pressure (mmHg): -2.13
CCOC(=O)CCCCCCC(=O)OCC,5.9 °C,283 °C,–
c1ccc(-c2ncoc2-c2ccccc2)cc1,44 °C,–,–
CCOC(=O)c1ccc(Br)cc1,–,263 °C,–
CCCCCCCCCCCCCCCC1CCCCC1,29 °C,373 °C,log10 vapour pressure (mmHg): -6.46
c1cscn1,–,118 °C,log10 vapour pressure (mmHg): 1.23
C1CC2C3CCC(C3)C2C1 (stereo not drawn),–,–,log10 biodegradation half-life (days): 3
NCCCC1OCC2(CO1)COC(CCCN)OC2 (stereo not drawn),–,–,ready biodegradability: not readily biodegradable
O=C(Nc1ccc(Cl)cc1)Nc1ccc(Cl)c(Cl)c1,256 °C,–,ready biodegradability: not readily biodegradable
COc1ccc(CCCCO)cc1,3.5 °C,–,–
C/C(=C\C(=O)O)C1CCCCC1,85.5 °C,–,–
O=C1OCCC1N(C(=O)C1CC1)c1cccc(Cl)c1 (stereo not drawn),95 °C,–,–
